Results published in PMC6956158, “In Vitro and In Vivo Assessment of Metabolic Drug Interaction Potential of Dutasteride with Ketoconazole” (Pharmaceutics, 2019).

Test: Stability in rat plasma (QC samples)
Assay type: in vitro ADME
Details: n = 5; for Stability (percent drug remaining), Autosampler: 10 °C for 24 h in the autosampler; for Stability (percent drug remaining), Bench-Top: room temperature for 3 h; for Stability (percent drug remaining), Freeze-Thaw: three freezing and thawing cycles; for Stability (percent drug remaining), Long-Term: −20 °C for 30 days
Description: The bioanalytical method proposed herein for the simultaneous determination of DUT and H-DUT was fully validated on the basis of the US FDA guideline. The selectivity of the method was evaluated by comparing chromatograms of the analytes (DUT, H-DUT, and internal standard) in blank rat plasma, blank rat plasma spiked with the analytes, and rat plasma sample obtained from the in vivo rat pharmacokinetic study. Further, the existence of potential interferences at the acquisition windows of the analytes was checked. The linearity of the method was evaluated by adding increasing amounts of DUT and H-DUT to the blank plasma. To construct calibration curves (n = 5), the peak area ratios of DUT or H-DUT to the internal standard (y-axis) were plotted against the nominal concentration ratios of DUT or H-DUT (10–1000 ng/mL) to the internal standard (400 ng/mL) (x-axis), and then, linear regression analysis was performed. The sensitivity was assessed by estimating the LLOQ (signal-to-noise [S/N] ratio > 5). The peaks of the analytes at the LLOQ should be discrete, identifiable, and reproducible with acceptable precision (<20%) and accuracy (within 80–120%). The extraction recovery, matrix effect, dilution integrity, and stability (under bench-top, freeze–thaw, post-preparative, and long-term conditions) in addition to the intra-assay (five different samples) and inter-assay (five different runs) precision and accuracy for each analyte were determined at the LLOQ and three different QC levels as described in the US FDA guidelines and in previous studies.

C[C@]12C=CC(=O)N[C@@H]1CC[C@@H]1[C@@H]2CC[C@]2(C)[C@@H](C(=O)Nc3cc(C(F)(F)F)ccc3C(F)(F)F)CC[C@@H]12 [DUT, Dutasteride]
Stability (percent drug remaining), Autosampler (HQC 750 ng/mL): 102 ± 2%
Stability (percent drug remaining), Bench-Top (HQC 750 ng/mL): 102 ± 0%
Stability (percent drug remaining), Freeze-Thaw (HQC 750 ng/mL): 100 ± 0%
Stability (percent drug remaining), Long-Term (HQC 750 ng/mL): 105 ±1%
Stability (percent drug remaining), Autosampler (LLOQ 10 ng/mL): 103 ± 8%
Stability (percent drug remaining), Bench-Top (LLOQ 10 ng/mL): 108 ± 1%
Stability (percent drug remaining), Freeze-Thaw (LLOQ 10 ng/mL): 99.3 ± 4.7%
Stability (percent drug remaining), Long-Term (LLOQ 10 ng/mL): 105 ± 5%
Stability (percent drug remaining), Autosampler (LQC 30 ng/mL): 103 ± 1%
Stability (percent drug remaining), Bench-Top (LQC 30 ng/mL): 105 ± 6%
Stability (percent drug remaining), Freeze-Thaw (LQC 30 ng/mL): 99.7 ± 2.7%
Stability (percent drug remaining), Long-Term (LQC 30 ng/mL): 102 ± 4%
Stability (percent drug remaining), Autosampler (MQC 150 ng/mL): 104 ± 2%
Stability (percent drug remaining), Bench-Top (MQC 150 ng/mL): 103 ± 1%
Stability (percent drug remaining), Freeze-Thaw (MQC 150 ng/mL): 106 ± 2%
Stability (percent drug remaining), Long-Term (MQC 150 ng/mL): 100 ± 1%
